Experimental data from article PMC9518255 (Journal of Enzyme Inhibition and Medicinal Chemistry, 2022).
pIC50: −log10 of the molar value.

Columns and labels:
[1] = biological target: Keap1-Nrf2 PPI (Keap1 Kelch domain protein / FITC-9mer Nrf2 peptide amide) (Homo sapiens, UniProt Q14145); experiment: Fluorescence polarisation; format: binding; conditions: for inhibitory activities against Keap1-Nrf2 PPI compared to compound K3: FP assay, 5 and 50 μM, R2 substituent varied; for inhibition at 50 µM: read-out: inhibitory rate against Keap1-Nrf2 PPI
Keap1-Nrf2 PPI (Keap1 Kelch domain protein / FITC-9mer Nrf2 peptide amide), sequence (Q14145 321-609 limits assumed): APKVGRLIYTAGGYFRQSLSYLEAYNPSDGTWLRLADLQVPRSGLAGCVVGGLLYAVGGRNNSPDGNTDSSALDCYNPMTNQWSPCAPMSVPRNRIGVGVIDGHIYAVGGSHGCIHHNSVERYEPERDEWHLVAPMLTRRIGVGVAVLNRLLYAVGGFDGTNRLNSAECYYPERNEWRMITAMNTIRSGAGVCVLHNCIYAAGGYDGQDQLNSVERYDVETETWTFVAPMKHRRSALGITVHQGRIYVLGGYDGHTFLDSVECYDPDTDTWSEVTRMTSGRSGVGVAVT

[2] = Metabolic stability in human liver microsomes; format: in vitro ADME; conditions: pH 7.4

SMILES | pIC50 [1] | inhibitory activities against Keap1-Nrf2 PPI compared to compound K3 [1] | inhibition at 50 µM [1] [%] | remaining at 0.5 h, 10 μM [2] [%]
O=C(CCc1ccc(O)cc1)c1c(O)cc(O)cc1O [PHL, Phloretin, reference compound] | 5.06 | – | – | 10.3
COc1ccc(S(=O)(=O)Nc2ccc(NS(=O)(=O)c3ccc(-c4ccccc4)cc3)cc2)cc1 [K14] | – | markedly decreased | – | –
COc1ccc(S(=O)(=O)Nc2ccc(NS(=O)(=O)Cc3ccccc3)cc2)cc1 [K15] | – | markedly decreased | – | –
COc1ccc(S(=O)(=O)Nc2ccc(NS(=O)(=O)c3ccc4ccccc4c3)cc2)cc1 [K16] | – | markedly decreased | – | –
COc1ccc(S(=O)(=O)Nc2ccc(NS(=O)(=O)c3ccc(OC)cc3)c(CCC(=O)O)c2)cc1 [KP-1] | 6.13 | – | – | –

Results, then the compound that gave them:

pIC50 [1] | inhibitory activities against Keap1-Nrf2 PPI compared to compound K3 [1] | inhibition at 50 µM [1] [%] | remaining at 0.5 h, 10 μM [2] [%] | SMILES
~4.50 | slightly higher | 72 | – | COc1ccc(S(=O)(=O)Nc2ccc(NS(=O)(=O)c3cccnc3)cc2)cc1 [K18]
– | markedly decreased | – | – | COc1ccc(S(=O)(=O)Nc2ccc(NS(=O)(=O)c3ccccc3)cc2)cc1 [K10]
– | markedly decreased | – | – | COc1ccc(S(=O)(=O)Nc2ccc(NS(=O)(=O)c3cccc4cccnc34)cc2)cc1 [K17]
– | markedly decreased | – | – | COc1ccc(S(=O)(=O)Nc2ccc(NS(=O)(=O)c3ccc(C)cc3)cc2)cc1 [K11]
4.44 | – | ~68 | – | COc1ccc(S(=O)(=O)Nc2ccc(NS(=O)(=O)c3ccc(OC)cc3)cc2)cc1 [K3]
